Consider 2 compounds from US5977144A (priority 1997, dated 1999).

Data set [1] deals with alpha7 receptor (high affinity alpha-bungarotoxin binding, rat brain membranes) (Rattus norvegicus, UniProt Q05941). Description: biochemical.
Data set [2] deals with T1, rat alpha7 receptor (Rattus norvegicus, UniProt Q05941). Description: cell-based. The procedure: FIG. 13A. Effects of chronic injections of DMXB or nicotine on high affinity [^3 H]ACh or [^125 I]α-bungarotoxin (BTX) binding in rat neocortices. Adult male rats were injected with saline vehicle, 1 mg/kg DMXB or 0.2 mg/kg nicotine (NIC) (IP) daily for 2 weeks. At that time, neocortices were removed and assayed for high affinity [^3 H]ACh or [^125 I]α-bungarotoxin binding as described in the text. […] Responses of rat α7 ACHR to 3-CA, 2-MeOCA and 4-MeOCA. Concentration-response relationships for the peak agonist activated currents of oocytes injected with RNA coding for the rat α7 subunit. All responses were initially measured relative to the individual oocyte-response to 500 μM ACh, applied 5 min prior to drug-application. Responses were normalized relative to the maximum response obtainable with ACh so that a response of 1 represents full efficacy. The ratio of 500 μM ACh control response to ACh maximum was taken from Papke et al., 1997.
T1 sequence (Q05941 23-502): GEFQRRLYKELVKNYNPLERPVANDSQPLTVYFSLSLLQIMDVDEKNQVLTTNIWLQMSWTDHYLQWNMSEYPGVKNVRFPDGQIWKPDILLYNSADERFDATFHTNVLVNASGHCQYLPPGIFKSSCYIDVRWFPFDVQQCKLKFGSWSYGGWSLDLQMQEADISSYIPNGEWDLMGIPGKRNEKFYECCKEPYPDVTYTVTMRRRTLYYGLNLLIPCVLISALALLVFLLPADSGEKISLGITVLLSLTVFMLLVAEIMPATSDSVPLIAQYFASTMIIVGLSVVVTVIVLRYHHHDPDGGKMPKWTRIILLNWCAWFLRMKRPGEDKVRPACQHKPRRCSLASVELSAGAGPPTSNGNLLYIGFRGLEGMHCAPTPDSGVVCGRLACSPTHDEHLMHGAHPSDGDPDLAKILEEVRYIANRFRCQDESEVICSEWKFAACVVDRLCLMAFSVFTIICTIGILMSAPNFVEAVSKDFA
(§1) Oocytes were prepared and recordings made as described previously (de Fiebre, et al., 1995). Frogs were anesthetized by submersion in 0.1% (3)-aminobenzoic acid ethyl ester and several lobes of the ovary surgically removed through a small incision in the abdomen wall. Oocytes were freed from the follicle cells by treatment with collagenase (in calcium-free Barth's solution: 88 mM NaCl, 1 mM KCl, 15 mM Hepes pH 7.6, 0.33 mM MgSO4, 0.1 mg/ml gentamicin sulfate) for 2 hr at room temperature and Stage 5 oocytes were isolated. Oocytes were rinsed and stored at 18° C. in Barth's saline (88 mM NaCl, 1 mM KCl, 15 mM Hepes pH 7.6, 0.3 mM Ca(NO3)2, 0.41 mM CaCl2, 0.82 mM MgSO4, 0.1 mg/ml gentamicin sulfate) before and after microinjection with RNA. Microinjection was conducted with a Drummond Scientific "Nanoject Variable" automatic injector. Oocytes were injected with a 50 nl solution of specified rat nicotinic subunit mRNA species (2-10 mg/ml; derived from the cDNA containing HIP 306 plasmid kindly provided by Dr. Jim Boulter, Salk Institute) and incubated 2-7 days at 18° C. before electrophysiological recording. electrophysiological recordings, oocytes were perfused in a Warner Instruments RC-8 recording chamber with a perfusion solution containing 115 mM NaCl, 2.5 mM KCl, 10 mM Hepes pH 7.2, 1.8 mM CaCl2 and 1 μM atropine to block muscarinic responses. Perfusion was continuous at a rate of 10 ml/min. Drags were diluted in perfusion solution and applied using a solenoid valve to switch from perfusion to drug solutions. Current responses to drug administration were studied under two electrode voltage clamp at a holding potential of -70 mV using a Dagan Corp. TEV-200 voltage clamp connected to a 386-SX IBM computer using a TL-1 DMA interface (Axon Instruments). Micropipettes were filled with 3 M KCl and had resistances of 0.5-2 MOhms. Drug responses are analyzed with PClamp software (Axon Instruments). Oocytes with resting potentials of less than -30 mV were rejected.

The target of another data set is rat alpha4beta2 receptor (Rattus norvegicus, UniProt P09483+P12390). In words: Activation of alpha4beta2 receptors expressed in Xenopus oocytes. Type of data set: cell-based. The procedure: FIG. 14A. Responses of α4β2 ACHR to 3-CA, 2-MeOCA or 4-MeOCA. Concentration-response relationships for the peak agonist activated currents of oocytes injected with RNA coding for rat α4β2 subunits. Responses are first expressed relative to the response to 10 μM ACh, applied 5 min before drug-application, then normalized to the maximum response obtainable with ACh so that a response of 1 represents full efficacy. The ratio between 10 μM ACh and maximum ACh response was determined in separate experiments.
rat alpha4beta2 receptor, sequence (P09483 31-630): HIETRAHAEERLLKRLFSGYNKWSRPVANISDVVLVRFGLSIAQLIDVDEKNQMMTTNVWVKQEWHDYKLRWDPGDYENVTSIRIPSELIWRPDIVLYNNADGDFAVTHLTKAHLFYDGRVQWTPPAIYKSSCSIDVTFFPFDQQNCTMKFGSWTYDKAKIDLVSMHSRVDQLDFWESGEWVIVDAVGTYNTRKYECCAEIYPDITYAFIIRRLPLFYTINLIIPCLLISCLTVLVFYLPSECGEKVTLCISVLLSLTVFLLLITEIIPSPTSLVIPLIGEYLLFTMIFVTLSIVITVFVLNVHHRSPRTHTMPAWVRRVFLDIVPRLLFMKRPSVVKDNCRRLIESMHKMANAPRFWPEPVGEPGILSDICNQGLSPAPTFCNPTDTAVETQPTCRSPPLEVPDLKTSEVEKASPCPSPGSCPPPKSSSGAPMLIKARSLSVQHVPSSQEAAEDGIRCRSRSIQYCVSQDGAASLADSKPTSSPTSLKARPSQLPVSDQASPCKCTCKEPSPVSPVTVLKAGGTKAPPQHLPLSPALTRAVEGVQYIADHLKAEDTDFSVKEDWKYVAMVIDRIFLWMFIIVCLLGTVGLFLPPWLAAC
rat alpha4beta2 receptor, sequence (P12390 25-500): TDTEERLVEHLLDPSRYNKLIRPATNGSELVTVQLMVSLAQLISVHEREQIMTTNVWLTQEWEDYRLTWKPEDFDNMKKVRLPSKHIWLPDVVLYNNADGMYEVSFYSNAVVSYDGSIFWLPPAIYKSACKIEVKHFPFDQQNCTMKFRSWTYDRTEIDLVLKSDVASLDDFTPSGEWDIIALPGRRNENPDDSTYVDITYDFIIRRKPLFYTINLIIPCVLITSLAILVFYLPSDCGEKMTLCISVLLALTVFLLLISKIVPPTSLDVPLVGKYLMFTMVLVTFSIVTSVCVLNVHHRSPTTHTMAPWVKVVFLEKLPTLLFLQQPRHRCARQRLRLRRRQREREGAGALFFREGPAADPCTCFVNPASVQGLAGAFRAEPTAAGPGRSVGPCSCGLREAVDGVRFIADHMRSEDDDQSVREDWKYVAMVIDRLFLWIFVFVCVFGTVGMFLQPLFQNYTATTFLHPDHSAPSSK
as §1

Data set [3] deals with T1, rat alpha7 receptor. Description: cell-based. Details: Oocytes Antagonist: unit not given here. To be noted: for Oocytes Antagonist: Table 4. Here is the method: FIG. 13B. Effects of chronic injections of DMXB or nicotine on high affinity [^3 H]ACh or [^125 I]α-bungarotoxin (BTX) binding in rat neocortices. Adult male rats were injected with saline vehicle, 1 mg/kg DMXB or 0.2 mg/kg nicotine (NIC) (IP) daily for 2 weeks. At that time, neocortices were removed and assayed for high affinity [^3 H]ACh or [^125 I]α-bungarotoxin binding as described in the text. […] Responses of rat α7 AChR to 3-CA, 2-MeOCA and 4-MeOCA. […] All responses are expressed relative to the oocyte-response to 500 μM ACh applied 5 min prior to the experimental agonist application.
as §1
Antagonist properties subsequent to agonist activity were measured as a decrease in responsiveness to ACh applied 5 min after compound-application, normalized to ACh application instead of the anabaseine-derivative (FIG. 13A AND FIG. 13B).

In data set [4] the test system is rat. As to conditions: in vivo.
Protocol: Eleven male Sprague-Dawley rats were first trained to press the left lever in a two lever operant conditioning chamber. They had limited access to food for 23 hours prior to the first training session and then received 20 grams of food for the remainder of the study. Once subjects reliably pressed the left lever, a catheter was surgically implanted into the right jugular vein. The catheter consisted of three separate pieces of tubing, a 37 mm length of silicon rubber tubing which entered the circulatory system (Silastic Medical Grade tubing), a 65 mm length of polyethylene tubing (Intramedic, PE10) and a 170 mm length of polyethylene tubing with the same internal diameter (Intramedic, PE20). The catheter exited between the scapulae and could be hooked up to a swivel which itself was connected to a pneumatic syringe. […] Once subjects had recovered from surgery they were trained to complete a fixed ratio 2 schedule (FR 2) to activate the pneumatic syringe. […] Each daily experimental session lasted 50 minutes. After several sessions under these conditions, subjects received an intraperitoneal (IP) injection of physiological saline (1 ml/kg), 15 min prior to the start of the self-administration session. The next day subjects were IP injected with 8 mg/kg of GTS-21, also 15 minutes before the beginning of the session.
The subject of data set [5] is rat primary neocortical neurons. Type of data set: cell-based.
The test system of a further data set is NMDA receptor. Description: High affinity [3H]MK801 binding to rat brain membranes. To be noted: concentrations up to 30 μM.
For data set [6], the system named is rat. As to conditions: adult rat.
Data set [7] concerns the target T1, rat alpha7 receptor. As to conditions: cited from earlier work.
In a further data set the test system is PC12 cells. To be noted: Martin et al., 1994, cited from earlier work.
Data set [8] has as its system rat primary neocortical neurons. As to conditions: Shimohama et al., in press; cited from earlier work.
Data set [9] has as its system animal models of learning and memory. As to conditions: animals; cited from earlier work.
The test system of the next data set is fimbrial transections. To be noted: Meyer et al., in press; cited from earlier work.
The mark [10] stands for this setting: Table 4, read-out: Receptor Binding α7.
[11] abbreviates: Table 4, read-out: Oocytes Agonist α7.
Where [12] appears, read: Table 4, read-out: Oocytes Agonist α4.

“Also recorded” adds a separate entry of the source. Read-outs that look alike come from different tables or passages of the source.

alpha7 receptor (high affinity alpha-bungarotoxin binding, rat brain membranes), sequence (Q05941 23-502): as the sequence (Q05941 23-502) above

Turning to `COc1ccccc1/C=C/C=C1\CCCN=C1c1cccnc1` [2-MeOCA, E,E-3-(2-Methoxycinnamylidene)anabaseine], the inhibition at 1 µM stood at 94.9% in data set [1] (1 μM (Table 2), read-out: alpha7 binding: % inhibition of alphabungarotoxin binding) and 94.9% in [1] (setting [10]). The IC50 in data set [1] (rat brain membranes, read-out: IC50, [125I]α-bungarotoxin binding) came to 8 nM; at rat alpha7 receptor [3] (ACh applied 5 min after compound, read-out: IC50, antagonism subsequent to agonist activity), 2300 ± 700 nM. Moreover, the “selectivity α7 over α4β2 (in words)” value on rat alpha7 receptor [2] was “selectively activate α7 receptors over α4β2”. Further, the Emax came to 96% on rat alpha7 receptor [2] (setting [11]), 96% on rat alpha7 receptor [2] (read-out: alpha7 activation: % response observed with 500 μM acetylcholine) and 2.2% at rat alpha4beta2 receptor (setting [12]). For the same compound, at rat alpha7 receptor [2] (oocyte expression system), the “α7 receptor activation (in words)” value is reported as “fully efficaciously”. Moreover, on rat alpha7 receptor [2] (oocytes, read-out: α7 EC50), the EC50 was 6.2 ± 2.2 µM. The “inhibition of α7 receptors, estimated” value on rat alpha7 receptor [3] (10 μM, estimated from oocyte results) is given as “over 90%”. The inhibition at 10 µM at rat alpha7 receptor [3] (10 μM, ACh application 5 min later, read-out: long term inhibition of α7 receptors) turned out to be 90%. Further, the “Oocytes Antagonist” value on rat alpha7 receptor [3] was “.08”.

Take `COc1ccc(/C=C2\CCCN=C2c2cccnc2)c(OC)c1` [DMXB, 3-(2,4-Dimethoxybenzylidene) anabaseine]: the inhibition at 1 µM in data set [1] (setting [10]) is 52%; in data set [1] (concentration of 1 μM (Table 1), read-out: alpha7 binding: % Inhibition of high affinity alphabungarotoxin binding (1 nM)), 52%. Further, the Emax on rat alpha7 receptor [2] (setting [11]) is 20%; on rat alpha7 receptor [2] (read-out: alpha7 activation: response, normalized to 500 μM acetylcholine (maximum response)), 20%; on rat alpha4beta2 receptor (setting [12]), < 1%; at rat alpha4beta2 receptor (read-out: alpha4beta2 activation: response compared to maximal acetylcholine), < 1%. The “Oocytes Antagonist” value on rat alpha7 receptor [3] is on record as “.20”. For the same compound, the “nicotine self-administration (in words)” value with rat [4] is given as “inhibits nicotine self-administration; also recorded: less likely to self-administer nicotine”. Further, in [5] (10 μM, with 1 mM glutamate), the “protection against glutamate, concomitant (in words)” value is “not observed when administered concomitantly with glutamate”. For the same compound, the “protection against NMDA receptor-mediated toxicity (in words)” value in [5] (24 hr prior to glutamate or NMDA) was “protects rat primary neocortical neurons against NMDA-receptor mediated excitotoxicity; also recorded: protected against NMDA receptor-mediated toxicity”. The “effect on kainate-induced neurotoxicity (in words)” value in [5] (kainate) is reported as “no effect”. Besides, the “interference with high affinity [3H]MK801 binding (in words)” value in the data set with NMDA receptor was “did not interfere”. The “spontaneous locomotor activity (in words)” value in the data set with rat [6] is given as “without adversely affecting the animal's other functions, including its spontaneous locomotor activity”. Moreover, the “α7 agonist activity (in words)” value at rat alpha7 receptor [7] (background/literature) is given as “weak partial agonist activity”. In addition, the “selectivity α7 over α4β2 / other nicotinic subtypes (in words)” value on rat alpha7 receptor [7] (literature) is recorded as “selective as an agonist for α7 versus other nicotinic receptor subtypes”. Further, the “activity of ACh at α7 receptors” value on rat alpha7 receptor [7] (partial agonist) was “about 20%”. Further, the “activity against trophic factor deprivation in PC12 cells (in words)” value in the data set with PC12 cells (listed as GTS 21) is recorded as “sufficient to reduce this neurotoxicity”; in the data set on PC12 cells (listed as GTS-21), “neuroprotective activity”. For the same compound, the “activity against NMDA-receptor activation (in words)” value in data set [8] is given as “neuroprotective activity”. The “memory-related performance (in words)” value in data set [9] is “enhances performance in several spatial and non-spatial memory-related paradigms in rats and rabbits”. For the same compound, the “activity against fimbrial transections in vivo (in words)” value with fimbrial transections is reported as “neuroprotective activity”.

A word on the IC50: it is the concentration that gives 50% inhibition. For orientation: EC50 means the concentration giving half of the maximal effect.
